From EP4790048A1, “S1PR4 REGULATOR COMPOUND FOR AUTOIMMUNE DISEASE TREATMENT AND APPLICATION THEREOF” (Shengyuan Zetong (Shanghai) Pharmaceutical Co., Ltd, priority 2023, dated 2025) come the findings set out here.

One test deals with T1, hS1P1 (Homo sapiens, UniProt P21453).
T1 construct: expressed in transfected cells; host or cells: CHO
Description: Tango β-arrestin recruitment luciferase assay, Tango-hS1P1-CHO. The test is classed as cell-based. The note with it: β-arrestin recruitment; 20 h drug treatment; top 45 µM, 9 serial 5-fold dilutions; positive control 1 µM BAF-312; read-out: Tango-hS1P1-CHO EC50. The text has this: (§1) The Tango assay detects ligand-dependent GPCR activity through the interaction between β-arrestin and GPCRs. […] The NTEV fragment and the tetracycline transactivator (tTA), an artificial transcription factor, are fused at the C-terminus of the GPCR, while the CTEV fragment is fused to human β-arrestin 2. To enhance the stability of the interaction between GPCR and β-arrestin, a short sequence from the C-terminus of the human arginine vasopressin receptor 2 (V2 tail) is inserted between the GPCR and NTEV. The V2 tail contains multiple GRK phosphorylation sites, which strengthen β-arrestin binding upon phosphorylation. The CTEV fragment carries the stabile point mutation S219P and is truncated at residue 221 to remove the autoinhibitory C-terminal tail. Meanwhile, β-arrestin 2 is truncated to lack the entire C-terminal tail (residues 383-410 deleted). This truncation confers robust stimulus-dependent receptor desensitization, thereby improving detection sensitivity compared with wild-type β-arrestin 2. The UAS reporter construct consists of upstream activating sequence (UAS) elements, a minimal CMV promoter, and a tTA-dependent luciferase reporter gene. Therefore, constructing Tango cells requires the co-transfection of the above three plasmids into host cells. Upon GPCR activation and β-arrestin recruitment, the TEV enzyme at the β-arrestin terminus cleaves tTA from the GPCR C-terminus. The released tTA initiates tTA-dependent luciferase transcription, and compound activity is ultimately determined by measuring luminescence intensity.
(§2) • 1) Tango cell line from was digested from the culture dish respectively. After cell counting, the cells were plated at a density of 10,000 cells per well with […] into a white opaque 96-well plate (add 60 µL D'Hanks to the surrounding wells), and incubated overnight (20 h) in a 5% CO2 incubator at 37°C. The cell density will reach approximately 90% the next day. • 2) After 20 h, 30 µL of serially diluted compound solution was added to each well. The control group was supplemented with 30 µL F12K complete medium. Each group had three replicate wells. • 3) Samples were collected after 20 h of drug treatment.
(§3) (All compounds were tested at a final concentration of 45 µM, with 9 serial dilutions at 5-fold intervals. 1 µM BAF-312 was used as the positive control for S1PR1, and 25 µM BAF-312 was used as the positive control for S1PR4.
A general note: Activated receptors often draw arrestin, which recruitment assays turn into a signal.

In another test the target is T2, hS1P4 (Homo sapiens, UniProt O95977).
T2 construct: expressed in transfected cells; host or cells: CHO
T2 sequence (O95977 1-384): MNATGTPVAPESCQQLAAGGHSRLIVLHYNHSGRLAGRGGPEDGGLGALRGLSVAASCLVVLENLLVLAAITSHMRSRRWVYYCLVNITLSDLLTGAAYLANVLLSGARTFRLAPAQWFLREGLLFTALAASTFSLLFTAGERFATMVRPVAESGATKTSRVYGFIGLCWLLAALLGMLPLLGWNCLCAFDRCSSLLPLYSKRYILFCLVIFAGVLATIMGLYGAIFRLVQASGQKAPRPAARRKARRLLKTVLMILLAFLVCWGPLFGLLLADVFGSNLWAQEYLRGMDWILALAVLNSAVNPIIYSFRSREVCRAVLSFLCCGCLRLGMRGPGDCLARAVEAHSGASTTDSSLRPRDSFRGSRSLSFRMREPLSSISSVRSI
Description: Tango β-arrestin recruitment luciferase assay, Tango-hS1P4-CHO. The test is classed as cell-based. The note with it: β-arrestin recruitment; 20 h drug treatment; top 45 µM, 9 serial 5-fold dilutions; positive control 25 µM BAF-312; read-out: Tango-hS1P4-CHO EC50.
Source text: as §1, §2, §3

T1 sequence (P21453 whole entry): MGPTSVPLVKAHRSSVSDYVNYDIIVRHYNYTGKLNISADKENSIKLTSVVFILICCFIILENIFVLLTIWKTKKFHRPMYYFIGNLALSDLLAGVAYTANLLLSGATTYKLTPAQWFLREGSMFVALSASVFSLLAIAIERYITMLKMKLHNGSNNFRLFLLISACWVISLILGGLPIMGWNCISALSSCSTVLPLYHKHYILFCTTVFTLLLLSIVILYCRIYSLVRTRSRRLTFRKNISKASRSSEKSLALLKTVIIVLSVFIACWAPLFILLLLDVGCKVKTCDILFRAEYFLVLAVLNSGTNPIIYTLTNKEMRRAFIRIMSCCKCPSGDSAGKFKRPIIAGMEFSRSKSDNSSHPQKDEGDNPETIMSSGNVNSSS

As usually defined, the EC50 is the midpoint of the concentration-response curve. For `CCc1cc(/C(C)=N/OCc2ccc(C3CCCCC3)cc2)ccc1CN1CC(C(=O)O)C1` [Compound 3], the concentration for a half-maximal effect (EC50) on hS1P1 was 578 nM; at hS1P4, 2160 nM. The corresponding values for `C/C(=N\OCc1ccc(C2CCCCC2)cc1)c1ccc(CN2CC(C(=O)O)C2)cc1` [Compound 1] are 699 nM and 2970 nM. In the case of `CCc1cc(/C(C)=N/OCc2ccc(C)c(C(F)(F)F)c2)ccc1CN1CC(C(=O)O)C1` [Compound 14, (E)-1-(2-ethyl-4-(1-((4-methyl-3-(trifluoromethyl)benzyl)oxy)imino)ethyl)azetidine-3-carboxylic acid], the EC50 was 5990 nM on hS1P1 and 3660 nM on hS1P4. The corresponding values for `C/C(=N\OCc1ccc(C2CCCCC2)c(C(F)(F)F)c1)c1ccc(CN2CCCC(C(=O)O)C2)cc1` (stereo not shown) [Compound 7] are 508 nM and 2500 nM. Consider `CCc1cc(/C(C)=N/OCc2ccc(-c3cnc(F)cn3)c(C)c2)ccc1CN1CCCC(C(=O)O)C1` (stereo not shown) [Compound 92, (E)-1-(2-ethyl-4-(1-(((3-methyl-4-(5-fluoropyrazin-2-yl)-benzyl)oxy)imino)ethyl)benzyl)piperidine-3-carboxylic acid], for which the EC50 at hS1P1 and at hS1P4 was over 10000 nM in each case. With `CCc1cc(/C(C)=N/OCc2ccc(-c3cnc(F)cn3)cc2F)ccc1CN1CC[C@H](C(=O)O)C1` [Compound 87, (S, E)-1-(2-ethyl-4-(1-(((2-fluoro-4-(5-fluoropyrazin-2-yl)benzyl)oxy)imino)ethyl)benzyl)pyrrolidine-3-carboxylic acid], the EC50 at hS1P1 is over 10000 nM; at hS1P4, 17.4 ± 0.39 nM. With `CCc1cc(/C(C)=N/OCc2ccc(-c3ccc(F)nc3)nc2)ccc1CN1CC[C@H](C(=O)O)C1` [Compound 66, (S, E)-1-(2-ethyl-4-(1-(((6'-fluoro-[2,3'-bipyridin]-5-yl)methoxy)imino)ethyl)benzyl)pyrrolidine-3-carboxylic acid], on hS1P1, the EC50 is over 10000 nM. On the same count and under the same terms, the result for `CCc1cc(/C(C)=N/OCc2ccc(-c3cncn3C)c(C)c2)ccc1CN1CC[C@H](C(=O)O)C1` [Compound 44] reads over 10000 nM; that for `CCc1cc(/C(C)=N/OCc2ccc3ccccc3c2)ccc1CN1CC(C(=O)O)C1` [Compound 15], 807 nM.

With `CCc1cc(/C(C)=N/OCc2ccc3c(c2)CCCC3)ccc1CN1CC(C(=O)O)C1` [Compound 23, (E)-1-(2-ethyl-4-(1-(((5,6,7,8-tetrahydronaphthalen-2-yl)methoxy)imino)ethyl)benzyl)azetidine-3-carboxylic acid], the EC50 at hS1P1 is 560 nM.

Turning to `CCc1cc(/C(C)=N/OCc2ccc(-c3c(C)noc3C)c(C)c2)ccc1CN1CC[C@H](C(=O)O)C1` [Compound 45], the EC50 on hS1P1 is over 10000 nM. With `CCc1cc(/C(C)=N/OCc2ccc(-c3cnsc3)cc2)ccc1CN1CC[C@H](C(=O)O)C1` [Compound 74], on hS1P1, the concentration giving a half-maximal response (EC50) is over 10000 nM. Still for that read-out and setting: then `CCc1cc(/C(C)=N/OCc2ccc(-c3ccc(F)nc3)cc2F)ccc1CN1CC[C@H](C(=O)O)C1` [Compound 65], with over 10000 nM. `CCc1cc(/C(C)=N/OCc2ccc(-c3cnn(C(C)(C)C)c3)c(C)c2)ccc1CN1CC[C@H](C(=O)O)C1` [Compound 39]: at hS1P1, the EC50 is over 10000 nM. Take `CCc1cc(/C(C)=N/OCc2ccc(-c3ccc(F)cc3)c(C)c2)ccc1CN1CC[C@H](C(=O)O)C1` [Compound 34, (S, E)-1-(2-ethyl-4-(1-(((4'-fluoro-2-methyl-[1,1'-biphenyl]-4-yl)methoxy)imino)ethyl)benzyl)pyrrolidine-3-carboxylic acid]: the EC50 is 86.9 nM at hS1P1 and 2.4 nM at hS1P4. On to `C/C(=N\OCc1ccc(C2CCCCC2)c(C(F)(F)F)c1)c1ccc(CNC2CCCC(C(=O)O)C2)cc1` (stereo not shown) [Compound 9, (E)-3-((4-((1-((4-cyclohexyl-3-(trifluoromethyl)benzyl)oxy)imino)ethyl)benzyl)amino)cyclohexane-1-carboxylic acid], for which the EC50 on hS1P1 turned out to be 455 nM; on hS1P4, 2350 nM.

Consider `CCc1cc(/C(C)=N/OCc2ccc(-c3ccnnc3)c(C)c2)ccc1CN1CC[C@H](C(=O)O)C1` [Compound 84, (S, E)-1-(2-ethyl-4-(1-(((3-methyl-4-(pyridazin-4-yl)benzyl)oxy)imino)ethyl)benzyl)pyrrolidine-3-carboxylic acid], for which, on hS1P1, the EC50 was over 10000 nM. Take `CCc1cc(/C(C)=N/OCc2ccc(-c3cnn(C)c3)c(C)c2)ccc1CN1CC[C@H](C(=O)O)C1` [Compound 40]: the EC50 at hS1P1 was over 10000 nM. On the same count and under the same terms, the result for `CCc1cc(/C(C)=N/OCc2ccc(-c3ccccc3)cc2)ccc1CN1CC(C(=O)O)C1` [Compound 20, (E)-1-(4-(1-(([1,1'-biphenyl]-4-ylmethoxy)imino)ethyl)-2-ethylbenzyl)azetidine-3-carboxylic acid] reads 782 ± 24.9 nM; that for `CCc1cc(/C(C)=N/OCc2ccc(-c3cncnc3C)c(C)c2)ccc1CN1CC[C@H](C(=O)O)C1` [Compound 83, (S, E)-1-(2-ethyl-4-(1-(((3-methyl-4-(4-methylpyrimidin-5-yl)benzyl)oxy)imino)ethyl)benzyl)pyrrolidine-3-carboxylic acid], over 10000 nM.

For the compound `CCc1cc(/C(C)=N/OCc2ccc(-c3ccoc3)c(C)c2)ccc1CN1CC[C@H](C(=O)O)C1` [Compound 36, (S, E)-1-(2-ethyl-4-(1-(((4-(furan-3-yl)-3-methylbenzyl)oxy)imino)ethyl)benzyl)pyrrolidine-3-carboxylic acid], the EC50 on hS1P1 was found to be 103 nM; at hS1P4, 1.67 nM. `CCc1cc(/C(C)=N/OCc2ccc(-c3ccccc3)c(C)c2)ccc1CN1CCCC(C(=O)O)C1` (stereo not shown) [Compound 33]: at hS1P1, the EC50 was found to be 454 nM. For the compound `CCc1cc(/C(C)=N/OCc2ccc(-c3cncnc3)c(C)c2)ccc1CN1CCC(C(=O)O)CC1` [Compound 82, (E)-1-(2-ethyl-4-(1-(((3-methyl-4-(pyrimidin-5-yl)benzyl)oxy)imino)ethyl)benzyl)piperidine-4-carboxylic acid], the results for the EC50 at hS1P1 and at hS1P4 were over 10000 nM and 42.7 ± 2.28 nM, respectively. Take `CCc1cc(/C(C)=N/OCc2ccc(-c3ccccc3)c(F)c2)ccc1CN1CC[C@H](C(=O)O)C1` [Compound 35, (S, E)-1-(2-ethyl-4-(1-(((2-fluoro-[1,1'-biphenyl]-4-yl)methoxy)imino)ethyl)benzyl)pyrrolidine-3-carboxylic acid]: the half-maximal effective concentration (EC50) came out at 104 nM on hS1P1 and 3.79 nM at hS1P4. Consider `CCc1cc(/C(C)=N/OCc2ccc(-c3cnn(C)c3)cc2)ccc1CN1CC[C@H](C(=O)O)C1` [Compound 55], for which the results for the EC50 at hS1P1 and on hS1P4 were over 10000 nM and 269 nM, respectively. The corresponding values for `CCc1cc(/C(C)=N/OCc2ccc(-c3ccncc3)c(C)c2)ccc1CN1CC[C@H](C(=O)O)C1` [Compound 37, (S, E)-1-(2-ethyl-4-(1-(((3-methyl-4-(pyridin-4-yl)benzyl)oxy)imino)ethyl)benzyl)pyrrolidine-3-carboxylic acid] are 644 nM and 15.6 nM. For `CCc1cc(/C(C)=N/OCc2ccc(-c3cncnc3)c(F)c2)ccc1CN1CC[C@H](C(=O)O)C1` [Compound 71, (S, E)-1-(2-ethyl-4-(1-(((3-fluoro-4-(pyrimidin-5-yl)benzyl)oxy)imino)ethyl)benzyl)pyrrolidine-3-carboxylic acid], the concentration giving a half-maximal response (EC50) on hS1P1 was over 10000 nM.
